≈ marks a conversion by molar mass, not a printed value.
Columns and labels:
Format in all cases: functional
Pseudomonas aeruginosa = assay: Antibacterial activity against Pseudomonas aeruginosa ATCC 27853 assessed as bacterial growth inhibition incubated for 16 to 18 hrs by CLSI based susceptibility testing method; settings: time 16-18 hrs
Mycobacteroides chelonae = assay: Antimycobacterial activity against Mycobacteroides chelonae ATCC 35752 assessed as bacterial growth inhibition incubated for 7 days by resazurin dye based assay; settings: ATCC 35752, 168 h, time 7 day
Staphylococcus aureus = assay: Antibacterial activity against Staphylococcus aureus ATCC 29213 assessed as bacterial growth inhibition incubated for 16 to 18 hrs by CLSI based susceptibility testing method; settings: time 16-18 hrs
[1] = tested on: Mycobacterium tuberculosis; assay: Antimycobacterial activity against Mycobacterium tuberculosis H37Rv ATCC 27294 assessed as bacterial growth inhibition incubated for 7 days by resazurin dye based assay; settings: H37Rv ATCC 27294, 168 h, time 7 day
Escherichia coli = assay: Antibacterial activity against Escherichia coli ATCC 25922 assessed as bacterial growth inhibition incubated for 16 to 18 hrs by CLSI based susceptibility testing method; settings: time 16-18 hrs
[2] = tested on: Mycolicibacterium fortuitum; assay: Antimycobacterial activity against Mycobacterium fortuitum ATCC 6841 assessed as bacterial growth inhibition incubated for 7 days by resazurin dye based assay; settings: ATCC 6841, 168 h, time 7 day
[3] = tested on: Mycobacteroides abscessus; assay: Antimycobacterial activity against Mycobacterium abscessus ATCC 19977 assessed as bacterial growth inhibition incubated for 7 days by resazurin dye based assay; settings: ATCC 19977, 168 h, time 7 day
Acinetobacter baumannii = assay: Antibacterial activity against Acinetobacter baumannii BAA 1605 assessed as bacterial growth inhibition incubated for 16 to 18 hrs by CLSI based susceptibility testing method; settings: time 16-18 hrs
Klebsiella pneumoniae = assay: Antibacterial activity against Klebsiella pneumoniae BAA 1705 assessed as bacterial growth inhibition incubated for 16 to 18 hrs by CLSI based susceptibility testing method; settings: time 16-18 hrs

Structure (SMILES) | MIC (Pseudomonas aeruginosa) [µg/mL] | MIC (Mycobacteroides chelonae) [µg/mL] | MIC (Staphylococcus aureus) [µg/mL] | MIC [1] [µg/mL] | MIC (Escherichia coli) [µg/mL] | MIC [2] [µg/mL] | MIC [3] [µg/mL] | MIC (Acinetobacter baumannii) [µg/mL] | MIC (Klebsiella pneumoniae) [µg/mL]
Cc1nc(/N=C2\NC(=O)/C(=C/c3cc(C)n(-c4cc(Cl)ccc4O)c3C)S2)sc1C | > 64 | > 64 | 64 (≈ 139 µM) | > 64 | > 64 | > 64 | > 64 | > 64 | > 64
Cc1nc(/N=C2\NC(=O)/C(=C/c3cc(C)n(-c4cccc(Cl)c4)c3C)S2)sc1C | > 64 | > 64 | > 64 | 4 (≈ 9.03 µM) | > 64 | > 64 | > 64 | > 64 | > 64
Cc1ccc(-n2c(C)cc(/C=C3\S/C(=N/c4nc(C)c(C)s4)NC3=O)c2C)cc1C | > 64 | > 64 | > 64 | 4 (≈ 9.16 µM) | > 64 | > 64 | > 64 | > 64 | > 64
Cc1ccc(-n2c(C)cc(/C=C3\S/C(=N/c4nc(C)c(C)s4)NC3=O)c2C)cc1 | > 64 | > 64 | > 64 | > 64 | > 64 | > 64 | > 64 | > 64 | > 64
Cc1cc(/C=C2\S/C(=N/c3nccs3)NC2=O)c(C)n1-c1ccccc1Cl | > 64 | > 64 | 4 (≈ 9.64 µM) | 16 (≈ 38.6 µM) | > 64 | > 64 | > 64 | > 64 | > 64
Cc1nc(/N=C2\NC(=O)/C(=C/c3cc(C)n(-c4ccccc4O)c3C)S2)sc1C | > 64 | > 64 | > 64 | > 64 | > 64 | > 64 | > 64 | > 64 | > 64
Cc1nc(/N=C2\NC(=O)/C(=C/c3cc(C)n(-c4ccccc4Br)c3C)S2)sc1C | > 64 | > 64 | > 64 | 4 (≈ 8.21 µM) | > 64 | > 64 | > 64 | > 64 | > 64
Cc1nc(/N=C2\NC(=O)/C(=C/c3cc(C)n(-c4ccc(Cl)cc4)c3C)S2)sc1C | > 64 | > 64 | > 64 | > 64 | > 64 | > 64 | > 64 | > 64 | > 64
Cc1cc(/C=C2\S/C(=N/c3nccs3)NC2=O)c(C)n1-c1cc(Cl)ccc1O | > 64 | > 64 | 1 (≈ 2.32 µM) | 32 (≈ 74.3 µM) | > 64 | > 64 | > 64 | > 64 | > 64
Cc1ccc(-n2c(C)cc(/C=C3\S/C(=N/c4nccs4)NC3=O)c2C)cc1 | > 64 | > 64 | 4 (≈ 10.1 µM) | 8 (≈ 20.3 µM) | > 64 | > 64 | > 64 | > 64 | > 64
Cc1nc(/N=C2\NC(=O)/C(=C/c3cc(C)n(-c4ccccc4Cl)c3C)S2)sc1C | > 64 | > 64 | > 64 | 2 (≈ 4.51 µM) | > 64 | > 64 | > 64 | > 64 | > 64
Cc1cc(/C=C2\S/C(=N/c3nccs3)NC2=O)c(C)n1-c1cccc(F)c1 | > 64 | > 64 | 1 (≈ 2.51 µM) | 8 (≈ 20.1 µM) | > 64 | > 64 | > 64 | > 64 | > 64
COc1ccc(-n2c(C)cc(/C=C3\S/C(=N/c4nccs4)NC3=O)c2C)cc1OC | > 64 | > 64 | 4 (≈ 9.08 µM) | 8 (≈ 18.2 µM) | > 64 | > 64 | > 64 | > 64 | > 64
COc1cccc(-n2c(C)cc(/C=C3\S/C(=N/c4nccs4)NC3=O)c2C)c1 | > 64 | > 64 | 64 (≈ 156 µM) | > 64 | > 64 | > 64 | > 64 | > 64 | > 64
Cc1cc(/C=C2\S/C(=N/c3nccs3)NC2=O)c(C)n1-c1ccc(C#N)c(Cl)c1 | > 64 | > 64 | > 64 | 16 (≈ 36.4 µM) | > 64 | > 64 | > 64 | > 64 | > 64
Cc1cc(/C=C2\S/C(=N/c3nccs3)NC2=O)c(C)n1-c1ccccc1O | > 64 | > 64 | 1 (≈ 2.52 µM) | 16 (≈ 40.4 µM) | > 64 | > 64 | > 64 | > 64 | > 64
Cc1cc(/C=C2\S/C(=N/c3nccs3)NC2=O)c(C)n1-c1ccc(Cl)cc1 | > 64 | > 64 | 4 (≈ 9.64 µM) | 8 (≈ 19.3 µM) | > 64 | > 64 | > 64 | > 64 | > 64
COc1ccc(-n2c(C)cc(/C=C3\S/C(=N/c4nc(C)c(C)s4)NC3=O)c2C)cc1 | > 64 | > 64 | > 64 | > 64 | > 64 | > 64 | > 64 | > 64 | > 64
Cc1nc(/N=C2\NC(=O)/C(=C/c3cc(C)n(-c4ccccc4)c3C)S2)sc1C | > 64 | > 64 | > 64 | > 64 | > 64 | > 64 | > 64 | > 64 | > 64
Cc1cc(/C=C2\S/C(=N/c3nccs3)NC2=O)c(C)n1-c1ccc([N+](=O)[O-])c(C(F)(F)F)c1 | > 64 | > 64 | > 64 | > 64 | > 64 | > 64 | > 64 | > 64 | > 64
COc1ccc(-n2c(C)cc(/C=C3\S/C(=N/c4nc(C)c(C)s4)NC3=O)c2C)cc1OC | > 64 | > 64 | 64 (≈ 137 µM) | > 64 | > 64 | > 64 | > 64 | > 64 | > 64
Cc1nc(/N=C2\NC(=O)/C(=C/c3cc(C)n(-c4cccc(F)c4)c3C)S2)sc1C | > 64 | > 64 | > 64 | 64 (≈ 150 µM) | > 64 | > 64 | > 64 | > 64 | > 64
Cc1cc(/C=C2\S/C(=N/c3nccs3)NC2=O)c(C)n1-c1ccccc1Br | > 64 | > 64 | 4 (≈ 8.71 µM) | 8 (≈ 17.4 µM) | > 64 | > 64 | > 64 | > 64 | > 64
Cc1cc(/C=C2\S/C(=N/c3nccs3)NC2=O)c(C)n1-c1ccc(N2CCOCC2)cc1 | > 64 | > 64 | 16 (≈ 34.4 µM) | 4 (≈ 8.59 µM) | > 64 | > 64 | > 64 | > 64 | > 64
COc1ccc(-n2c(C)cc(/C=C3\S/C(=N/c4nccs4)NC3=O)c2C)cc1 | > 64 | > 64 | 2 (≈ 4.87 µM) | 64 (≈ 156 µM) | > 64 | > 64 | > 64 | > 64 | > 64
Cc1nc(/N=C2\NC(=O)/C(=C/c3cc(C)n(-c4ccc([N+](=O)[O-])cc4)c3C)S2)sc1C | > 64 | > 64 | > 64 | > 64 | > 64 | > 64 | > 64 | > 64 | > 64
Cc1nc(/N=C2\NC(=O)/C(=C/c3cc(C)n(-c4ccc(C#N)c(Cl)c4)c3C)S2)sc1C | > 64 | > 64 | > 64 | > 64 | > 64 | > 64 | > 64 | > 64 | > 64
Cc1cc(/C=C2\S/C(=N/c3nccs3)NC2=O)c(C)n1-c1ccc(F)cc1 | > 64 | > 64 | > 64 | 4 (≈ 10 µM) | > 64 | > 64 | > 64 | > 64 | > 64
COc1ccccc1-n1c(C)cc(/C=C2\S/C(=N/c3nc(C)c(C)s3)NC2=O)c1C | > 64 | > 64 | > 64 | > 64 | > 64 | > 64 | > 64 | > 64 | > 64
Cc1nc(/N=C2\NC(=O)/C(=C/c3cc(C)n(-c4ccc([N+](=O)[O-])c(C(F)(F)F)c4)c3C)S2)sc1C | > 64 | > 64 | 16 (≈ 30.7 µM) | > 64 | > 64 | > 64 | > 64 | > 64 | > 64

From ChEMBL document CHEMBL5634099, “Pyrrole-thiazolidinone hybrids as a new structural class of broad-spectrum anti-infectives” (Eur J Med Chem, 2023)
